From patent US6620818B1, “Method for reducing the severity of side effects of chemotherapy and/or radiation therapy” (priority 2001, dated 2003)

molecular target: CDK1 (Homo sapiens, UniProt P06493); experiment: Cyclin dependent protein kinase assay, CDK1; type: biochemical; conditions: inhibitory activity against CDK1, baculovirus-expressed enzyme, [γ-32P]ATP peptide phosphorylation
Sequence (P06493 whole entry, species assumed): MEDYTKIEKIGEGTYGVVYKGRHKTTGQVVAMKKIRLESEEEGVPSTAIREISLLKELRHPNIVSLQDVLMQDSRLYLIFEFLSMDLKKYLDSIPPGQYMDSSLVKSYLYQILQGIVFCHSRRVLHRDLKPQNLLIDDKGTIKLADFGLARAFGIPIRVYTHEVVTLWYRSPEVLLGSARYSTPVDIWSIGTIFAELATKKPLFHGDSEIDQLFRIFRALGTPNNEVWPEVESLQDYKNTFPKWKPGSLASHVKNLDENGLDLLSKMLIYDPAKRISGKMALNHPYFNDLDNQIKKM
Sequence (P14635 whole entry partner, species assumed): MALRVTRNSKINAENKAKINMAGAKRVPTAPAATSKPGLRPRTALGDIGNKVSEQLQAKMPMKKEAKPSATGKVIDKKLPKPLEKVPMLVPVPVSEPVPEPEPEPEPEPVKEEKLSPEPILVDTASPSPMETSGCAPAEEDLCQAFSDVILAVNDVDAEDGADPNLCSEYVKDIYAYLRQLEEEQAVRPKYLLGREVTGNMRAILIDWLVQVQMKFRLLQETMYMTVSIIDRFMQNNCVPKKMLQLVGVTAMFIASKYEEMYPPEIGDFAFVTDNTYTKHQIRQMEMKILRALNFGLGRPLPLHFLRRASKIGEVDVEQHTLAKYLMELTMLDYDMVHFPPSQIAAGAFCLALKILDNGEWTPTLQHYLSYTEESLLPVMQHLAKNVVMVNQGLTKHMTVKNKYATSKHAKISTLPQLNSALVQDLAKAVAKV

IC50	SMILES
1 to 10 nM	CC(C)(CO)CNS(=O)(=O)c1ccc(NC=C2C(=O)Nc3ccc4ncsc4c32)cc1 [Compound A1]
51 to 100 nM	O=C1Nc2ccc3ncsc3c2C1=CNc1ccc(S(=O)(=O)Nc2ccccn2)cc1 [Compound A2]
11 to 50 nM	O=C1Nc2ccc3ncsc3c2C1=CNc1ccc(S(=O)(=O)NCc2ccncc2)cc1 [Compound A3]
